One test deals with T1, cyclin E/CDK2 enzyme (Homo sapiens, UniProt P24941).
T1 construct: made in house; host or cells: Sf9 insect cells, recombinant baculovirus
Description: CDK2 ELISA kinase assay (phospho-Rb ser 795 detection). It is filed as biochemical. On the procedure: • 1. High-binding ELISA microtiter plates (Costar) were coated with 40 μl of the kinase substrate (GST fusion of C-terminal fragment of the retinoblastoma susceptibility gene product) diluted to 10 μg/ml in tris-buffered saline (TBS), overnight at 4° C. • 2. Non-specific binding sites were blocked for 1 hour at 4° C. with Superblock in TBS (Pierce), and the plates rinsed with water. • 3. For the screen, 1.5 μl of test compound (200 μg/ml stock in 20% DMSO/20 mM HEPES, pH 7.5) was added to each well. Final dose of the test compound in the assay was 10 ug/ml. […] The kinase reaction (30 μl) was dispensed into each well. Reactions contained 200 μM ATP, 0.5 mg/ml bovine serum albumin (BSA; Sigma), and 0.5 μl partially purified cyclin D1/cdk 4 enzyme*. The enzyme complex is expressed in insect cells (Sf9) infected with recombinant baculovirus and partially purified using ammonium sulfate fractionation. Reaction volumes were adjusted to 30 μl with kinase assay buffer (50 mM HEPES, pH 7.5, 10 mM MgCl2, 5% glycerol, 10 mM 2-mercaptoethanol). • *: For CDK2 assay, 1.0 μl cyclin E/CDK2 enzyme (diluted 1:1000 in kinase assay buffer) was used. The enzyme is isolated from insect cells (Sf9) infected with recombinant baculovirus and partially purified using ammonium sulfate fractionation. For CDK1 assay, 0.08 μl cyclin B/CDK1 enzyme [New England BioLabs; the enzyme is isolated from insect cells (Sf9) infected with recombinant baculovirus carrying human cdc 2 and human cyclin B] was used.
[…] • 5. Plates were incubated at 30° C. for 1 hour. • 6. The reaction mixture was removed by aspiration and replaced with 250 μl TBS containing 0.1% Tween-20 and 5% nonfat dry milk (blocking buffer). The plates were incubated at 4° C. for 1 hour. • 7. The blocking buffer was removed and replaced with 50 μl of the primary antibody [anti-phospho-Rb ser 795 (New England BioLabs) diluted 1:1000 in blocking buffer]. Incubation was at 4° C. for 16-20 hours. • 8. The wells were rinsed 3 times with 250 μl of TBS containing 0.1% Tween-20 followed by the addition of 50 μl of secondary antibody [anti-rabbit IgG conjugated to horseradish peroxidase (Amersham Life Science) diluted 1:1000 in blocking buffer]. • 9. After a 1 hour incubation at room temperature, the wells were rinsed 3 times with 250 μl of TBS/0.1% Tween 20. • 10. TMB (3,3′,5,5′-tetramethylbenzidine dihydrochloride) substrate solution (100 μl; Pierce) was added to each well and the color development reaction allowed to proceed 5-10 minutes at room temperature with shaking. The reaction was stopped by the addition of 2N sulfuric acid (100 μl) and the absorbance values read at 450 nm in a microplate reader (Molecular Devices). Analysis of Results: • 1. The percentage of the absorbance value in wells containing the test compound relative to control wells (no test agent) was determined. • 2. IC50 values of selected compounds were determined from inhibition curves, after subtracting background values (no substrate).

For another test, the system named is HCT-116. Description: Cytotoxicity assay (SRB), HCT-116. It is filed as cell-based. The settings on record: Homo sapiens, HCT-116, 72 h, HCT116 cells, SRB, read-out: In Vitro Cellular Activity IC50 HCT116. The gist of the method: (§1)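 Percentage survival is derived from SRB absorbance (540 nm) versus untreated cells. Exposures were 3 days, except 6 days for BT474, at 37 °C and 7% CO2.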

For another test, the target named is T2, cyclin B/CDK1 enzyme (Homo sapiens, UniProt P06493).
T2 construct: purchased New England BioLabs; host or cells: Sf9 insect cells, recombinant baculovirus
The experiment in a line: CDK1 ELISA kinase assay (phospho-Rb ser 795 detection). It is filed as biochemical. A digest of the protocol:
(§2)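 Wells were coated overnight with GST-Rb C-terminal fragment, then blocked. Compound (10 ug/ml final) and cyclin/CDK enzyme from baculovirus-infected Sf9 cells with 200 μM ATP reacted 1 h at 30° C. Ser795 phosphorylation was detected by ELISA at 450 nm.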
Background: ELISA stands for enzyme-linked immunosorbent assay.

The next test deals with LoVo. Description: Cytotoxicity assay (SRB), LoVo. It is filed as cell-based. Particulars: Homo sapiens, LoVo, 72 h, LoVo cells, SRB, read-out: In Vitro Cellular Activity IC50 LOVO. A digest of the protocol: as §1
Another test deals with T3, cyclin D1/cdk 4 enzyme (Homo sapiens, UniProt P11802).
T3 construct: made in house; host or cells: Sf9 insect cells, recombinant baculovirus
The experiment in a line: CDK4 ELISA kinase assay (phospho-Rb ser 795 detection). The format is biochemical. The gist of the method:
as §2

Another test deals with MCF-7. Description: Cytotoxicity assay (SRB), MCF-7. Particulars: Homo sapiens, MCF7, 72 h, MCF-7 cells, SRB, read-out: In Vitro Cellular Activity IC50 MCF-7. It is filed as cell-based. A digest of the protocol: as §1
For another test, the system named is BT474. The experiment in a line: Cytotoxicity assay (SRB), BT474. It is filed as cell-based. A digest of the protocol:
as §1

[1] abbreviates: In Vitro Enzyme Assays, read-out: CDK2 IC50.
The mark [2] stands for this setting: In Vitro Enzyme Assays, read-out: CDK1 IC50.
Where [3] appears, read: In Vitro Enzyme Assays, 200 μM ATP, read-out: CDK4 IC50.
Setting [4] is: Homo sapiens, BT-474, 144 h, BT474 cells, SRB, 6 days; read-out: In Vitro Cellular Activity IC50 BT474.
Where [5] appears, read: In Vitro Enzyme Assay, read-out: CDK2 IC50.
Setting [6] is: In Vitro Enzyme Assay, read-out: CDK1 IC50.
[7] abbreviates: In Vitro Enzyme Assay, read-out: CDK4 IC50.
Where [8] appears, read: In Vitro Enzyme Assay, cyclin E/CDK2, read-out: CDK2 IC50.
The mark [9] stands for this setting: In Vitro Enzyme Assay, cyclin B/CDK1, read-out: CDK1 IC50.
The mark [10] stands for this setting: Homo sapiens, BT-474, 144 h, BT474 cells, 6 days, SRB; read-out: In Vitro Cellular Activity IC50 BT474.
The mark [11] stands for this setting: In Vitro Enzyme Assay, cyclin D1/cdk 4, read-out: CDK4 IC50.

A word on the IC50: it is the concentration that gives 50% inhibition.

Like-named read-outs stand apart in the source and are kept apart here. Bounds are passed on as bounds.

T3 sequence (P11802 whole entry, species assumed): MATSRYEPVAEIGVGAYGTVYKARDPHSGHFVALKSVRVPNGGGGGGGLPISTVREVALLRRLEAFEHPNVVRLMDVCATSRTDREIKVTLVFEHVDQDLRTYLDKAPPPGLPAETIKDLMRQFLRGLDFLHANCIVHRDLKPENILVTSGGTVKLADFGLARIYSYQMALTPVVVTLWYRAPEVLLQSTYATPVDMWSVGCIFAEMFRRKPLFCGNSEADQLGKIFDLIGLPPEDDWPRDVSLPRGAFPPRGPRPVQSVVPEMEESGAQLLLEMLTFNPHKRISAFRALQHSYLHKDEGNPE
T3 sequence (P24385 whole entry partner, species assumed): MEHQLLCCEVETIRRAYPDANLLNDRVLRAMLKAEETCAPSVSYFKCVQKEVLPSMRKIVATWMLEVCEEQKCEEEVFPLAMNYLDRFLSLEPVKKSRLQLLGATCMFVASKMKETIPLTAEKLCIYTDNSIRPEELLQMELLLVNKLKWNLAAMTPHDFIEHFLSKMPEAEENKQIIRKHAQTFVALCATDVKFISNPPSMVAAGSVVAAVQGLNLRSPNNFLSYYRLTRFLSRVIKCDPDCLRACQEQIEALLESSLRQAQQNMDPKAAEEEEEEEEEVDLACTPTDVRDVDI
T2 sequence (P06493 whole entry): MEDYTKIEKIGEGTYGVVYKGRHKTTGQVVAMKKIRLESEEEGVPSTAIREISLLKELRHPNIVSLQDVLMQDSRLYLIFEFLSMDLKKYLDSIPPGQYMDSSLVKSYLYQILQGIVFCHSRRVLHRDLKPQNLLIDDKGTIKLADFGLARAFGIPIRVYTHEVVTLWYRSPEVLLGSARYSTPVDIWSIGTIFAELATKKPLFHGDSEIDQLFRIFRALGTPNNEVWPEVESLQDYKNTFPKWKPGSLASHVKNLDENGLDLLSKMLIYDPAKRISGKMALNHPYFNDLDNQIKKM
T2 sequence (P14635 whole entry partner): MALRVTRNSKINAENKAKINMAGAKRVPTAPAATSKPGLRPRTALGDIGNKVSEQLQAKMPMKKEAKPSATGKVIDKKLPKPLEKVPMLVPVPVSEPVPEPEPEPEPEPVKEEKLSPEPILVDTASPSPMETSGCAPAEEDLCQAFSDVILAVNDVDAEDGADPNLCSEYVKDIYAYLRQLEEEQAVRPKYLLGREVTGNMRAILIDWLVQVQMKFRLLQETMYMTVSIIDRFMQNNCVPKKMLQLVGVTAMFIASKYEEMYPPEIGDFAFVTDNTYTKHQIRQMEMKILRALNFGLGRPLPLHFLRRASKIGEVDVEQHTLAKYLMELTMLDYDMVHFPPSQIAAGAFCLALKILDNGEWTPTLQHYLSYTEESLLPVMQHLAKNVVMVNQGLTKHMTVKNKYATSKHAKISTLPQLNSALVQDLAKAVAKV

On to `CCC(=O)Nc1ccc(CN/C=C2\C(=O)NC(=O)c3ccc(I)cc32)cc1O` [Example 341, N-[2-Hydroxy-4-({[(Z)-(6-iodo-1,3-dioxo-2,3-dihydroisoquinolin-4(1H)-ylidene)methyl]amino}methyl)phenyl]propanamide], for which the IC50 on cyclin E/CDK2 enzyme (setting [1]) came out at 0.59 µM; with HCT-116 (three days), 1 µM; at cyclin B/CDK1 enzyme (setting [2]), 3.1 µM; in the test on LoVo (three days) it was 0.95 µM; at cyclin D1/cdk 4 enzyme (setting [3]), 0.02 µM; with MCF-7 (three days) it was 2.5 µM. Also, in the test on BT474 (setting [4]), the concentration for half-maximal inhibition (IC50) was 0.93 µM.

For `CONCCCc1ccc(N/C=C2\C(=O)NC(=O)c3ccc(Br)cc32)cc1` [Example 274, (4Z)-6-Bromo-4-[({4-[3-(methoxyamino)propyl]phenyl}amino)methylene]isoquinoline-1,3(2H,4H)-dione], the IC50 at cyclin E/CDK2 enzyme (setting [1]) amounted to 2.8 µM; with HCT-116 (three days), 9.5 µM; at cyclin B/CDK1 enzyme (setting [2]) it was 15.1 µM; in the test on LoVo (three days), 12.5 µM; at cyclin D1/cdk 4 enzyme (setting [3]), 1.9 µM; in the test on MCF-7 (three days), 10.3 µM. For the same compound, the IC50 in the test with BT474 (setting [4]) was determined as 12 µM.

With `O=C1NC(=O)c2ccc(I)cc2/C1=C/Nc1ccc2ncccc2c1` [Example 272, (4Z)-6-Iodo-4-[(quinolin-6-ylamino)methylene]isoquinoline-1,3(2H,4H)-dione], the half-inhibitory concentration (IC50) at cyclin E/CDK2 enzyme (setting [1]) is 39.7 µM; in the test with HCT-116 (three days), 4.2 µM; on cyclin B/CDK1 enzyme (setting [2]), greater than 50 µM; in the test with LoVo (three days) it was 8.9 µM; with MCF-7 (three days) it was 3.1 µM; with BT474 (setting [4]) it was 7.2 µM.

`CONCCCc1ccc(N/C=C2\C(=O)NC(=O)c3ccc(Br)cc32)cc1` [Example 875, (4Z)-6-bromo-4-[({4-[3-(methoxyamino)propyl]phenyl}amino)methylene]isoquinoline-1,3(2H,4H)-dione]: the IC50 at cyclin E/CDK2 enzyme (setting [5]) came to 2.8 µM; in the test with HCT-116 (3 days) it was 9.5 µM; at cyclin B/CDK1 enzyme (setting [6]), 15.1 µM; with LoVo (3 days), 12.5 µM; at cyclin D1/cdk 4 enzyme (setting [7]), 1.9 µM; with MCF-7 (3 days), 10.3 µM.

As to `COc1ccc(NC=C2C(=O)NCc3cc(Br)ccc32)cc1` [Example 841, 7-Bromo-4-[(4-methoxy-phenylamino)-methylene]-1,4-dihydro-2H-isoquinolin-3-one], the IC50 on cyclin E/CDK2 enzyme (setting [8]) is 25.3 µM; in the test with HCT-116 (3 days), 36 µM; on cyclin B/CDK1 enzyme (setting [9]), greater than 50 µM; in the test with LoVo (3 days), 34 µM; with BT474 (setting [10]), 47.8 µM.

With `CN1CCN(c2ccc(NC=C3C(=O)NCc4cc(Br)ccc43)cc2)CC1` [Example 842, 7-Bromo-4-{[4-(4-methyl-piperazin-1-yl)-phenylamino]-methylene}-1,4-dihydro-2H-isoquinolin-3-one], the IC50 was greater than 50 µM at cyclin E/CDK2 enzyme (setting [8]); 4.5 µM in the test with HCT-116 (3 days); greater than 50 µM at cyclin B/CDK1 enzyme (setting [9]); 5.7 µM in the test on LoVo (3 days); 2.3 µM at cyclin D1/cdk 4 enzyme (setting [11]); 7.2 µM in the test on BT474 (setting [10]).

With `CN(C)CCCN(C)c1ccc(N/C=C2\C(=O)NC(=O)c3ccc(Br)cc32)cc1` [Example 876, (4Z)-6-Bromo-4-[({4-[[3-(dimethylamino)propyl](methyl)amino]phenyl}amino)methylene]isoquinoline-1,3(2H,4H)-dione], the half-maximal inhibitory concentration (IC50) at cyclin E/CDK2 enzyme (setting [5]) is greater than 50 µM; in the test on HCT-116 (3 days), 4.2 µM; on cyclin B/CDK1 enzyme (setting [6]), greater than 50 µM; with LoVo (3 days), 8.6 µM; on cyclin D1/cdk 4 enzyme (setting [7]) it was 14.4 µM; with MCF-7 (3 days), 5.3 µM.

`C[C@@H]1CN(c2ccc(N/C=C3\C(=O)NC(=O)c4ccc(I)cc43)cc2)C[C@H](C)N1C` [Example 234, (4Z)-6-Iodo-4-[({4-[(3R,5S)-3,4,5-trimethylpiperazin-1-yl]phenyl}amino)methylene]-isoquinoline-1,3(2H,4H)-dione]: the IC50 on cyclin E/CDK2 enzyme (setting [1]) was greater than 50 µM; at cyclin B/CDK1 enzyme (setting [2]), greater than 50 µM; with LoVo (three days), 3.4 µM; on cyclin D1/cdk 4 enzyme (setting [3]) it was 2.8 µM; with BT474 (setting [4]), 2.5 µM.

Consider `O=C1NC(=O)c2ccc(Nc3ccccc3)cc2/C1=C/Nc1ccc(CN2CCCCC2)cc1` [Example 128, (4Z)-6-Anilino-4-({[4-(piperidin-1-ylmethyl)phenyl]amino}methylene)isoquinoline-1,3(2H,4H)-dione], for which the IC50 was greater than 50 µM on cyclin E/CDK2 enzyme (setting [1]); greater than 50 µM at cyclin B/CDK1 enzyme (setting [2]); 2.1 µM with LoVo (three days); 1.8 µM on cyclin D1/cdk 4 enzyme (setting [3]); 3.1 µM in the test with BT474 (setting [4]).

As for `N#Cc1ccc(-c2ccc3c(c2)C(=CNCc2ccc(S(N)(=O)=O)cc2)C(=O)NC3=O)cc1` [Example 755, 4-({[6-(4-Cyano-phenyl)-1,3-dioxo-2,3-dihydro-1H-isoquinolin-4-ylidenemethyl]-amino}-methyl)-benzenesulfonamide], the IC50 on cyclin E/CDK2 enzyme (setting [8]) worked out at 7.7 µM; on cyclin B/CDK1 enzyme (setting [9]), 12.3 µM; at cyclin D1/cdk 4 enzyme (setting [11]) it was 0.57 µM.

As to `O=C1NC(=O)c2ccc(-c3ccc(C(=O)O)cc3)cc2C1=CNCc1ccc(O)c(O)c1` [Example 770, 4-{4-[(3,4-Dihydroxy-benzylamino)-methylene]-1,3-dioxo-1,2,3,4-tetrahydro-isoquinolin-6-yl}-benzoic acid], the values for the half-inhibitory concentration (IC50) at cyclin E/CDK2 enzyme (setting [8]), on cyclin B/CDK1 enzyme (setting [9]) and at cyclin D1/cdk 4 enzyme (setting [11]) were 13.8 µM, 18.5 µM and 0.09 µM, respectively.

As for `CN1CCC(Oc2ccc(N/C=C3\C(=O)NC(=O)c4ccc(Br)cc43)cc2)C1` (centres unmarked) [Example 877, (4Z)-6-Bromo-4-[({4-[(1-methylpyrrolidin-3-yl)oxy]phenyl}amino)methylene]isoquinoline-1,3(2H,4H)-dione], the IC50 on cyclin E/CDK2 enzyme (setting [5]) is greater than 50 µM; with HCT-116 (3 days), 3.9 µM; on cyclin B/CDK1 enzyme (setting [6]), greater than 50 µM; in the test on LoVo (3 days), 6.2 µM; on cyclin D1/cdk 4 enzyme (setting [7]), 42.5 µM; with MCF-7 (3 days), 4.4 µM.

For the origin of these results see US7713994B2 (Wyeth LLC, priority 2005, dated 2010).
